Laboratory results reported in patent US6191153A, “Use of 2-amino-6-n-propyl-amino-4,5,6,7-tetrahydrobenzothiazole as a pharmaceutical composition having an antidepressant activity” (Boehringer Ingelheim KG, priority 1992, dated 2001).

Assays:
rats = assay: Forced swimming test (immobility time, antidepressant activity); type: in vivo; conditions: parenteral, eight rats
Procedure: Details of this behavioural test are described for example by Willner, Psychopharmacology 83, 1-16 (1984) and by Borsini and Meli, Psychopharmacology 94, 147-160 (1988).
Pramipexol (SND 919) was investigated on eight rats, by comparison with amineptine, a known antidepressant. Both substances were dissolved in physiological saline solution and administered by parenteral route.

[1] = in vivo
[2] = in vivo; remark: listed apart in the source

Structure (SMILES) | Immobility time (rats; dose 0.03 mg/kg) | Immobility time (rats; dose 0.10 mg/kg) | Immobility time (rats; dose 0.30 mg/kg) | bioavailability [1] | half-life [1] | tolerability [2] | Immobility time (rats; dose 20.00 mg/kg)
CCCN[C@H]1CCc2nc(N)sc2C1 [SND 919, 2-amino-6-n-propyl-amino-4,5,6,7-tetrahydrobenzothiazole] | 210 ± 14 s | 165 ± 6 s | 102 ± 17 s | > 80% | 12.5 h | extremely well tolerated | –
O=C(O)CCCCCCNC1c2ccccc2CCc2ccccc21 [Amineptine, reference compound] | – | – | – | – | – | – | 134 ± 19 s
